In patent US20020019365A1, “Pharmaceutical compositions of 2'-deoxy-2'-(fluoromethylene)cytidine” (priority 2000, published 2002):

Experiments:
[1] = pH-rate profile for the degradation of FMdC (pH-stability profile, FIG. 1); format: physicochemical
[2] = oral administration of FMdC in a conventional tablet form, systemic uptake / bioavailability; format: in vivo; conditions: mammalian patient
Experimental: Notwithstanding these teachings in the art, a problem has been encountered when the compound is administered in an oral form.

- pH at which FMdC is most stable ([1]; Britton-Robinson buffer (pH 2 to pH 11) and 0.1N HCl (pH 1) at 60° C.): ~9 pH
- stability at a pH of about 2 or less ([1]; pH of about 2 or less, 60° C.): very unstable
- patient-to-patient variability of systemic uptake [2]: high
- systemic uptake of the drug (oral bioavailability) [2]: less than desirable
Structure (SMILES): Nc1ccn(C2OC(CO)[C@@H](O)/C2=C\F)c(=O)n1 (stereo partly shown) [FMdC, 2′-deoxy-2′-(fluoromethylene)cytidine]
